Experimental findings from patent publication US9880171B2, “iASPP phosphorylation and metastatic potential” (LUDWIG INSTITUTE FOR CANCER RESEARCH LTD., priority 2012, dated 2018) are described below.

“Also recorded” adds a separate entry of the source.

Assay [1] concerns iASPP modification and p53-iASPP binding in WM278 cells. In words: iASPP modification and p53 co-immunoprecipitation in WM278 cells. It counts as cell-based, human. The procedure:
For WB, cells were lysed in buffer containing 8 M urea, 1 M thiourea, 0.5% CHAPS, 50 mM DTT, and 24 mM spermine. A total of 40 μg of protein extract was loaded per lane into SDS-polyacrylamide gels. Gels were transferred onto nitrocellulose membrane (Protran) and the resulting blots incubated first with primary antibody overnight at 4° C. and then with the appropriate secondary horseradish peroxidize-conjugated antibody (Dako). The results were visualized by enhanced chemiluminescent detection (Amersham Biosciences) using X-ray film (Fujifilm). For cell lysate immunoprecipitation, cells were dissolved in NP40 buffer (50 mM Tris-HCl pH 8.0, 150 mM NaCl, 1% NP-40) with protease inhibitor cocktail mix (Roche Diagnostics). Cells were further thoroughly broken by ultrasonication, followed by spinning for 1 hour. Achieved suspension was adjusted to 1-2 mg/ml using NP40 buffer and incubated with 20 μl nickel beads, glutathione beads, or protein A beads (with 2 μg required antibody) for 2 h at room temperature. The beads were washed for four times with NP40 buffer, boiled for 5 min in Laemmli sample buffer, and applied for Western blotting. For pure protein immunoprecipitation, 5-10 μg purified proteins were mixed in NP40 buffer with 1 mg/ml BSA for 2 h at room temperature.

Assay [2] deals with iASPP modification in H1299 cells. In words: nocodazole-induced iASPP modification in H1299 cells, G2/M kinase inhibitor panel (immunoblotting). Particulars: panel of 15 G2/M kinase inhibitors, 2-10 μM, 10 μM nocodazole overnight. It counts as cell-based, human. The procedure: FIG. 12. […] FIG. 12A. […] FIG. 12B. […] FIG. 12C.
FIG. 13. FIG. 13A. […] FIG. 13B.
FIG. 20. […] FIG. 20A. […] Bar=20 μm.
For WB, cells were lysed in buffer containing 8 M urea, 1 M thiourea, 0.5% CHAPS, 50 mM DTT, and 24 mM spermine. A total of 40 μg of protein extract was loaded per lane into SDS-polyacrylamide gels. Gels were transferred onto nitrocellulose membrane (Protran) and the resulting blots incubated first with primary antibody overnight at 4° C. and then with the appropriate secondary horseradish peroxidize-conjugated antibody (Dako). The results were visualized by enhanced chemiluminescent detection (Amersham Biosciences) using X-ray film (Fujifilm).
On the technique in general: Immunoblotting shows a protein as a band on a membrane.

Assay [3] relates to iASPP phosphorylated at ser 113. In words: phospho-ser113 iASPP western blot in nocodazole-treated U2OS cells. It counts as cell-based, human. As to conditions: nocodazole 1 μM 16 hours, 0.5 μM JNJ-7706621. The protocol: For the floating and adherent cells, the rounded (mitotic rich) cells were separated from the adherent cells after 24 hours treatment with nocodazole. Lysates were separated on a 6% SDS PAGE gel and proteins analysed by conventional western blotting. iASPP phosphor-[…] was detected using the antibody from rabbit 42310 as described in FIG. 23A, and total iASPP was detected by re-probing the blot with antibody LX049.3. Nucleolin was used as a loading control. […] Consistent with enhanced iASPP phosphorylation in nocodazole arrested mitotic cells, enhanced iASPP phosphorylation on ser 113 was also observed in the floating cells, which are mostly mitotic cells, and not in adherent cells (FIG. 23B). Total iASPP was detected by re-probing the blot with antibody LX049.3. Additionally, the specific binding of iASPP antibody (42310) to phosphorylated ser 113 were evaluated by determining the failure of iASPP antibody (42310) to bind when the protein is not phosphorylated at ser 113. Since CDK kinase phosphorylates iASPP at ser 113, CDK inhibitor JNJ-7706621 was used to treat human U2OS cells. […] Western blotting was carried out as described in FIG. 23B using an 8% SDS PAGE gel. When compared to untreated cells, binding of phosphor-ser 113 specific […] antibody was not observed in the presence 0.5 μM JNJ-7706621 (FIG. 23C). Total iASPP was detected by re-probing the blot with antibody LX049.3.

Assay [4] concerns p53 expression in B16 cells. In words: p53 level after Nutlin3 treatment, B16 cells. It is filed as cell-based, mouse. The protocol:
FIG. 20. Restoring p53 by inhibiting mdm2 and iASPP suppresses melanoma growth in vitro and in vivo. FIG. 20A. H1299 cells were treated with DMSO or 10 μM nocodazole in the presence or absence of 2 or 10 μM of mitosis-related kinase inhibitors as indicated. […] FIG. 20B. Left panel: representative p53 level after Nutlin3 treatment for 24 hours in a variety of cells. Right bar graphs show the sub-G1 proportion of WM278 after treatment as that described in FIG. 19B (in upper panel, 10 μM and 20 μM Nutlin3 were used in parallel for comparison). From left to right of the upper right bar graph of FIG. 20B, the bars correspond to DMSO, Nut and JNJ+Nut, respectively. From left to right of the bottom bar graph of FIG. 20B, the bars correspond to DMSO, JNJ, Nut and JNJ+Nut, respectively. FIG. 20C. Me300, SK-MEL37, and B16 cells were treated as above (For B16 panel, 10 μM Nutlin3 was used) and sub-G1 proportion was analyzed. In (B) and (C), the bar graphs (mean±SD) were derived from three independent experiments. *p<0.05. FIG. 20D. Left panel: untreated B16 cells were subcutaneously injected into mice at day 1. […] Compound administration and tumor size measurement were repeated every two days from day 7 onwards. Bar graphs are shown as mean±SD (*p<0.05, n=6). FIG. 20E. Lower panels show representative images of isolated tumors. Right panel: representative H & E staining in B16 tumor section. Bar=20 μm. […]

In assay [5] the test system is WM278, Me300 and SK-MEL37 melanoma cell lines. In words: clonogenic survival / colony formation assay, Example 8.
Method: Cells were transfected with siRNA as shown and pre-seeded on 6 well plates ON, 0.3 μM cyclin B1/cdk1 inhibitors K00616a were then added for 48 hours to block iASPP modification. Cells were then treated with 0.3 μM K00616a, 20 μM nutlin3, or combinations of these drugs for another 72 hours. Cells were collected and cell cycle status, growth potential, and protein expression pattern were then determined by PI staining/FACS analysis, colony formation assay, and WB, respectively. […] Cells were pre-seeded on 6 well plates for overnight, 0.3 μM cyclin B1/cdk1 inhibitors K00616a were then added for 48 hours to block iASPP modification. Cells were then treated with 0.3 μM K00616a, 20 μM nutlin3, 1 μM PLX4032, or combinations of these drug for another 72 hours. Cells were collected and cell cycle status, growth potential, and protein expression pattern were then determined by PI staining/FACS analysis, colony formation assay, and WB, respectively.
After drugs treatment, cells were digested, counted, and seed in 6-well plates (100, 1 000, 10 000 cells/well). […]
The ability of K00616a to reactivate wild type p53 function in melanoma cells was tested in three melanoma cell lines that all express B-RAFV600E. […] Wild type p53 function was measured by a p53-dependent apoptosis assay, detecting the percentage of cells containing subG1 DNA content and growth suppression in a clonogenic survival assay.

Regarding `Nc1nc(Nc2ccc(S(N)(=O)=O)cc2)nn1C(=O)c1c(F)cccc1F` [JNJ-7706621], the “amount of modified iASPP” value in assay [1] (0.4 μM JNJ or 10 μM nocodazole overnight) is given as “reduced the amount of modified iASPP”. The “binding of iASPP to p53 (co-immunoprecipitation)” value in assay [1] (0.4 μM JNJ, listed as JNJ) is “failed to co-immunoprecipitate iASPP; also recorded: able to prevent iASPP from binding to p53”. In assay [2], the “prevention of nocodazole-induced iASPP modification” value is on record as “most potent inhibitor of iASPP modification”. Also, in assay [3], the “binding of phosphor-ser 113 specific anti-iASPP antibody (iASPP ser 113 phosphorylation)” value is recorded as “not observed”.

As for `COc1ccc(C2=N[C@@H](c3ccc(Cl)cc3)[C@@H](c3ccc(Cl)cc3)N2C(=O)N2CCNC(=O)C2)c(OC(C)C)c1` [Nutlin3], the “optimal concentration of Nutlin3 to induce maximal p53 expression” value in assay [4] was 10 µM. In addition, in assay [5] (WM278, Me300 and SK-MEL37, agent alone), the “growth suppression (colonies)” value is “limited”. Moreover, the “effect on the growth suppression effects of PLX4032” value in assay [5] (added alone to PLX4032) is listed as “minimal effect”.
